The text below walks through data of patent US8217059B2, “Compositions and methods for treating spasticity” (Allergan, Inc., priority 2009, dated 2012).

Assay [1] has as its system rats with spasticity. Kind of assay: Peripheral muscle resistance during computer-controlled ankle flexion in rats with ischemia-induced spasticity. Type of assay: in vivo. The method, then:
(§1) After ischemia, animals with developed paraplegia were selected and maintained for 3-12 months. To identify the presence of spasticity, the following tests were performed at 7-14 day intervals as described below: 1) tonic EMG activity recorded from gastrocnemius muscle (i.e., stimulus-independent changes in EMG activity); 2) peripheral muscle resistance measurement during a computer controlled ankle-flexion and simultaneous EMG recording from gastrocnemius muscle (i.e., stimulus-dependent changes in EMG activity); and 3) motor evoked potential recording.
Peripheral muscle resistance was measured using a previously described system (O. Kakinohana, Neuroscience 1:141(3) (2006)). Briefly, animals are placed into a plastic restrainer and one hind paw attached by a tape to a metal plate driven by a computer-controlled stepping motor. The metal plate is equipped with a digital force transducer. The resistance of the ankle to flexion was measured during motor-driven ankle flexion and data collected directly to the computer.

In assay [2] the test system is rats with spasticity. Kind of assay: Electromyographic (EMG) recording from gastrocnemius muscle during ankle flexion in rats with ischemia-induced spasticity. Type of assay: in vivo. As to conditions: 100 mg/kg i.p., FIG. 1. The method, then:
as §1
To record EMGs, two silver needle (22 G) electrodes (distance between recording electrodes=1 cm) were placed percutaneously into the gastrocnemius muscle. Electrodes were connected to a preamplifier (HS4 fiber optic BIOAMP HEADSTAGE, WPI) and amplified using DB4 fiber optic amplifier (WPI). Animals were then allowed to acclimate for 10 min and the EMG responses recorded before, during and after ankle flexion. Recorded signal was digitized by the Instrunet Model 100 Network A/D, acquired by the Instrunet Model 200 PCI controller (Omega, USA) and stored in PC for analysis.

SMILES strings stand for the structures. “Also recorded” adds a separate entry of the source.

With `N[C@@H](C(=O)N1CCCC1)[C@@H](O)c1ccncc1` [Compound A], the “spasticity associated with transient ischemia of the spinal cord” value in assay [1] (100 mg/kg) is “inhibits the spasticity”. Also, the “muscle resistance during the period of ankle flexion” value in assay [1] (100 mg/kg of Compound A, spasticity after transient spinal cord ischemia) was “decrease in muscle resistance”. In assay [2], the “EMG response / EMG activity” value is “corresponding changes in EMG activity; also recorded: inhibits EMG response”.
